Values of other authors as cited in US20080255091A1, “COMPOUNDS TO TREAT AMYLOIDOSIS AND PREVENT DEATH OF BETA-CELLS IN TYPE 2 DIABETES MELLITUS” (ASTRUM THERAPEUTICS PTY LTD., priority 2005, published 2008).

System: β-cell death induced by a fibrillogenic form of IAPP

Molecule | prevention of β-cell death induced by a fibrillogenic form of IAPP
Nc1c(/N=N/c2ccc(-c3ccc(/N=N/c4cc(S(=O)(=O)O)c5ccccc5c4N)cc3)cc2)cc(S(=O)(=O)O)c2ccccc12 [Congo Red] | completely or partially prevented
SNNFGA: the peptide SNNFGA, anti-amyloidosis agent from the literature (Islet amyloid polypeptide; UniProt P10997 53-58, looked up, fragment) | completely or partially prevented
